Tests used:
Format in all cases: binding
[1] = target: T1, TAMRA-nNOS/PSD-95-PDZ1 interaction (Homo sapiens, UniProt P29475+P78352, V36C); assay: 'direct' FP assay, TAMRA-nNOS / PDZ1 (saturation and inhibition)
T1 construct: nNOS-PDZ (12–130, human); PDZ1 (61-151); made in house; host or cells: E. coli
Method: The assay was established by creating a fluorescent version of nNOS-PDZ by TAMRA-labelling nNOS-PDZ via an introduced cysteine residue (V36C). […] However, up to 7.3 μM no inhibition of TAMRA-nNOS/PSD-95-PDZ interactions could be measured (data not shown).
(a) Saturation curves between TAMRA-nNOS (5 nM) and PDZ1, PDZ2, and PDZ1-2 of PSD-95. […] Error bars indicate SEM based on three individual measurements.
nNOS-PDZ (12–130, human) and α-Syntrophin-PDZ (82–200, human), both comprising an N-terminal His-tag/FXa-site sequence ([…]), were likewise expressed in E. coli and purified by HisTrap chromatography followed by gel-filtration as described in details previously. To make the TAMRA-labelled nNOS-PDZ, mutant nNOS-PDZ (V36C) protein was generated by standard site-directed mutagenesis and characterized as described previously. […]
Incubation time was 10–15 minutes (room temperature), and the assay was performed in a 1 × TBS buffer (150 mM NaCl, 10 mM Tris, pH 7.4) using black flat-bottom 384-well plates (Corning Life Sciences, NY) and a Safire2 plate-reader (Tecan, Männedorf, Switzerland). […] TAMRA- and Cy5-probes were measured at excitation/emission values of 530/585 nm (bandwidth = 20 nm) and 635/670 nm (bandwidth = 15 nm), respectively. […]

[2] = target: T2, TAMRA-nNOS/PSD-95-PDZ1-2 interaction (Homo sapiens, UniProt P29475+P78352, V36C); assay: 'direct' FP assay, TAMRA-nNOS / PDZ1-2 (saturation and inhibition)
T2 construct: nNOS-PDZ (12–130, human); PDZ1-2 (61-249); made in house; host or cells: E. coli
From the text: nNOS-PDZ (12–130, human) and α-Syntrophin-PDZ (82–200, human), both comprising an N-terminal His-tag/FXa-site sequence ([sequence]), were likewise expressed in E. coli and purified by HisTrap chromatography followed by gel-filtration as described in details previously[19]. To make the TAMRA-labelled nNOS-PDZ, mutant nNOS-PDZ (V36C) protein was generated by standard site-directed mutagenesis and characterized as described previously[19]. […]
FP values were fitted to the general equation: Y = Bottom + (Top–Bottom)/[1 + (10^(X-logIC50)*HillSlope)], where X is the logarithmic value of peptide/compound concentration, and Y is the experimental FP values. Competitive inhibition constants, Ki values, were calculated from the IC50 values to quantify affinities between test substance and protein[42].

[3] = target: PSD-95-PDZ2 (Homo sapiens, UniProt P78352); assay: ITC titration into PSD-95-PDZ2; set-up: PSD-95-PDZ2 (157–249, human); made in house; details: 100 μM protein in cell, 750 μM compound in syringe, 1% DMSO, pH 6.3, 25 °C
From the text: Unlike the FP experiments above, which rely on inhibition of interaction partners, the ITC method is a direct measure of binding, regardless of where it takes place on the protein.
Figure 5 ITC curves. Plots showing titrations into PDZ domains fitted to a one-site model.
For isothermal titration calorimetry (ITC) and NMR, PSD-95-PDZ2 (157–249, human) was expressed and purified as described previously. The sequence for the extended Mus musculus nNOS-PDZ (residues 12–134, Uniprot Q9JJ30) was sub-cloned into a pETM11 vector using cloning sites Nco1 and Kpn1, and the protein was expressed and purified following a similar protocol to that used for the production of PSD-95-PDZ2.
All ITC experiments were carried out at 25 °C on an iTC200 Microcalorimeter (GE Healthcare) with a 200 μL cell capacity and 40 μL syringe volume. The buffer used for all solutions was 20 mM phosphate buffer at pH 6.3; each experiment consisted of an initial injection of 0.5 μL, followed by fifteen 2.39 μL injections before a final injection of 1.89 μL. […] In both cases no heat exchange was detected, confirming that there was appropriate match of buffer conditions with no indication of dilution effects. […] For the nNOS-PDZ/PSD-95-PDZ2 interaction, 100 μM PDZ2 in the cell was titrated with 750 μM nNOS-PDZ. […] All data was analysed using the Origin®7 software programme.

[4] = up to 7.3 μM (fluorescence artefacts above), data not shown

Q: Oc1c(Cl)cc(Cl)cc1CNc1ccc2[nH]nnc2c1 [IC87201, 2-((1H-Benzo[d][1–3]triazol-5-ylamino)methyl)-4-6-dichlorophenol] was tested. Which “inhibition of TAMRA-nNOS/PDZ1 interaction” value [1, 4] did it give?
A: no inhibition

Q: And the “inhibition of TAMRA-nNOS/PDZ1-2 interaction” value [2, 4]?
A: no inhibition

Q: And the “binding to PSD-95-PDZ2 by ITC” value [3]?
A: does not bind

Q: How did the “inhibition of TAMRA-nNOS/PDZ1 interaction” value ([1]; tested at up to 1200 μM, TAMRA-nNOS 5 nM, PDZ1 7.5 μM) turn out when O=C(O)c1ccc(NCc2cc(Cl)cc(Cl)c2O)cc1O [ZL006, 4-((3,5-Dichloro-2-hydroxybenzyl)amino)-2-hydroxybenzoic acid] was run?
A: no activity

Q: And the “inhibition of TAMRA-nNOS/PDZ1-2 interaction” value ([2]; tested at up to 1200 μM, TAMRA-nNOS 5 nM, PDZ1-2 0.3 μM)?
A: no activity

Q: And the “binding to PSD-95-PDZ2 by ITC” value [3]?
A: binding was too weak to produce a binding isotherm

From paper PMC4503980 (Scientific Reports, 2015)
